The values below come from ChEMBL document CHEMBL1137293, “Discovery of oxadiazoyl tertiary carbinamine inhibitors of beta-secretase (BACE-1)” (J Med Chem, 2006).

The assay deals with Beta-secretase 1 (Homo sapiens, UniProt P56817). Kind of assay: Inhibition of BACE1.
Chain of Beta-secretase 1 (P56817 whole entry): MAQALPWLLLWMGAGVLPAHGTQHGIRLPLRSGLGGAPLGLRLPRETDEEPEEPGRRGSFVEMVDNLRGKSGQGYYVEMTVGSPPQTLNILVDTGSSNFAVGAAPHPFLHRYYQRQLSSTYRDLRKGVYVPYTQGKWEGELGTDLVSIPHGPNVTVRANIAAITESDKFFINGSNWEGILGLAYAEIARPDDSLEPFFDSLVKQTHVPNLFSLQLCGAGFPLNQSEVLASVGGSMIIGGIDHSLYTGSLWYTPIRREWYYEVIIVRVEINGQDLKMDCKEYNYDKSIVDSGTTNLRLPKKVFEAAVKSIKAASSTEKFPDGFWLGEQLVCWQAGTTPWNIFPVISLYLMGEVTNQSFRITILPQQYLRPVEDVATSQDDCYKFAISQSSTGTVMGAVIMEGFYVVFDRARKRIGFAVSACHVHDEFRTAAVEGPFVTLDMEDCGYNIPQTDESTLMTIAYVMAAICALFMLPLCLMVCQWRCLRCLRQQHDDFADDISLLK
Broadly, the IC50 is the midpoint of a concentration-inhibition curve. `C[C@@H](NC(=O)c1cc(C2=NC(CO)(Cc3ccccc3)CO2)cc(N(C)S(C)(=O)=O)c1)c1ccc(F)cc1` (stereo not given in full): half-maximal inhibition (IC50) required 12500 nM. `C[C@@H](NC(=O)c1cc(COC(=O)[C@](C)(N)Cc2ccccc2)cc(N(C)S(C)(=O)=O)c1)c1ccc(F)cc1`: it took 27 nM to reach half-maximal inhibition (IC50). As for `C[C@@H](NC(=O)c1cc(C(=O)NC(CO)(CO)Cc2ccccc2)cc(N(C)S(C)(=O)=O)c1)c1ccc(F)cc1`, the figure is 2700 nM; as for `C[C@@H](NC(=O)c1cc(COC[C@](C)(N)Cc2ccccc2)cc(N(C)S(C)(=O)=O)c1)c1ccc(F)cc1`, 430 nM. The result for `C[C@@H](NC(=O)c1cc(COC[C@@](N)(CO)Cc2ccccc2)cc(N(C)S(C)(=O)=O)c1)c1ccc(F)cc1` reads 1370 nM.
